Experimental data published in ChEMBL document CHEMBL5050843, “Amide substituted thiazoles as protein secretion inhibitors” (2019).

How the values were obtained:
Format in all cases: functional, cell-based
[1] = Inhibition of constitutively active PR1ss-Gluc secretion in human Flp-In-T-REx-293 cells measured by Gaussia luciferase reporter gene method
[2] = Inhibition of constitutively active VCAMss-Gluc secretion in human Flp-In-T-REx-293 cells measured by Gaussia luciferase reporter gene method
[3] = Inhibition of PD1ss-Gluc secretion in doxycyclin-induced human Flp-In-T-REx-293 cells measured by Gaussia luciferase reporter gene method
[4] = Inhibition of PR1ss-Gluc secretion in doxycyclin-induced human Flp-In-T-REx-293 cells measured by Gaussia luciferase reporter gene method
[5] = Inhibition of TNF-alpha-FL-Gluc secretion in doxycyclin-induced human Flp-In-T-REx-293 cells measured by Gaussia luciferase reporter gene method

SMILES | IC50 [1] [µM] | IC50 [2] [µM] | IC50 [3] [µM] | IC50 [4] [µM] | IC50 [5] [µM]
Cc1ccc(C(=O)Nc2nc(C(C)(C)C)cs2)s1 | > 25 | 7.65 | – | – | –
CC(C)(C)c1csc(NC(=O)Cc2cccs2)n1 | > 80 | 5.7 | – | – | –
CC(C)(C)c1csc(NC(=O)c2cc3cc(Br)ccc3s2)n1 | > 25 | > 25 | – | – | –
CC(C)(C)c1csc(NC(=O)c2cc3cc(C4=CCCCC4)ccc3s2)n1 | > 25 | 16.2 | – | – | –
CCC(C)n1cc(CC(=O)Nc2nc(C(C)(C)C)cs2)c2cc(Cl)ccc21 (stereo not drawn) | – | – | 4.38 | > 25 | –
CC(C)(C)c1nc(NC(=O)c2cc3c(s2)CCCC3)sc1C#N | – | > 80 | – | – | > 80
CC(C)(C)c1csc(NC(=O)c2ccc(-c3ccc(Cl)cc3Cl)s2)n1 | – | 2.27 | – | – | 4.31
CC(C)(C)c1csc(NC(=O)CN2CCCCC2)n1 | > 25 | > 25 | – | – | –
CC(C)(C)c1csc(NC(=O)Cc2cn(Cc3ccccc3S(C)(=O)=O)c3ccc(Cl)cc23)n1 | – | – | 13.2 | > 25 | –
CC(C)n1cc(CC(=O)Nc2nc(C(C)(C)C)cs2)c2cc(Cl)ccc21 | > 25 | 0.587 | 4.4 | > 25 | –
CC(C)(C)c1csc(NC(=O)c2cc3cc(Cl)ccc3s2)n1 | > 25 | 9.27 | – | – | –
COc1ccc2c(c1)c(CC(=O)Nc1nc(C(C)(C)C)cs1)cn2Cc1ccccc1 | – | – | 3.41 | > 25 | –
CC(C)(C)c1csc(NC(=O)c2csc3ccccc23)n1 | > 25 | 22.6 | – | – | –
CC(C)(C)c1csc(NC(=O)c2cc3c(Cl)cccc3s2)n1 | > 25 | 5.7 | – | – | –
CC(C)(C)c1csc(CNC(=O)Cc2csc3ccccc23)n1 | > 25 | > 25 | – | – | –
CC(C)(C)c1csc(NC(=O)c2cc3cc(C(F)(F)F)ccc3s2)n1 | > 25 | 16.5 | – | – | –
CNC(=O)c1ccc2sc(C(=O)Nc3nc(C(C)(C)C)cs3)cc2c1 | – | – | 8.8 | 7.44 | –
CC(C)(C)c1csc(NC(=O)c2cn(Cc3ccccc3)c3ccccc23)n1 | – | – | 7.05 | > 25 | –
Cc1cc(C(=O)N(C)c2nc(C(C)(C)C)cs2)cs1 | > 25 | > 25 | – | – | –
CC(C)(C)c1csc(NC(=O)Cc2cn(-c3ccccn3)c3ccc(Cl)cc23)n1 | – | – | 8.72 | > 25 | –
CC(C)(C)c1csc(NC(=O)Cc2cn(-c3cccc(Cl)c3)c3ccc(Cl)cc23)n1 | – | – | 4.14 | > 25 | –
CC(C)(C)c1csc(NC(=O)c2cc3cc(-c4cccc(Cl)c4)ccc3s2)n1 | > 25 | 5.02 | – | – | –

SMILES | IC50 [1] [µM] | IC50 [2] [µM] | IC50 [3] [µM] | IC50 [4] [µM] | IC50 [5] [µM]
CC(C)(C)c1csc(NC(=O)Cn2cnc3ccccc32)n1 | > 25 | > 25 | – | – | –
Cc1csc(C(=O)Nc2nc(C(C)(C)C)cs2)c1 | > 25 | 17.1 | – | – | –
CC(C)(C)c1csc(NC(=O)Cc2cn(Cc3ccccc3C(N)=O)c3ccc(Cl)cc23)n1 | – | – | > 25 | > 25 | –
CN[C@@H](Cc1cn(Cc2ccc(F)cc2)c2ccccc12)C(=O)Nc1nc(C(C)(C)C)cs1 | – | – | > 25 | > 25 | –
CC(C)(C)c1csc(NC(=O)c2cc(Br)c(Br)s2)n1 | – | 3.8 | – | – | 26
CC(C)(C)c1csc(NC(=O)c2cc3ccccc3s2)n1 | > 25 | 4.93 | – | – | –
CC(C)(C)c1csc(NC(=O)c2cc3cc(-c4ccccc4)ccc3s2)n1 | > 25 | 11 | – | – | –
Cc1cc(C(=O)Nc2nc(C3CC3)cs2)cs1 | > 25 | > 25 | – | – | –
C#Cc1ccc2sc(C(=O)Nc3nc(C(C)(C)C)cs3)cc2c1 | > 25 | > 25 | – | – | –
CC(C)(C)c1csc(NC(=O)c2ccc3ocnc3c2)n1 | > 25 | > 25 | – | – | –
CC(C)(C)c1nc(NC(=O)Cc2csc3ccc(Cl)cc23)sc1Cl | > 25 | 11.8 | – | – | –
CC(C)c1cccc(C(=O)Nc2nc(C(C)(C)C)cs2)c1 | > 25 | > 25 | – | – | –
CC(C)(C)c1csc(NC(=O)c2cccc(C(F)(F)F)c2)n1 | > 80 | 7.6 | – | – | –
Cc1ccc(C(=O)Nc2nc(C(F)(F)F)cs2)s1 | > 25 | > 25 | – | – | –
CC(C)(C)c1csc(NC(=O)c2cccc(CN3CCOCC3)c2)n1 | > 25 | > 25 | – | – | –
CCCCCc1ccc2sc(C(=O)Nc3nc(C(C)(C)C)cs3)cc2c1 | > 25 | 8.14 | – | – | –
CC(C)(C)c1csc(NC(=O)c2cc3cccc(Cl)c3s2)n1 | > 25 | 3.22 | – | – | –
CC#Cc1ccc2sc(C(=O)Nc3nc(C(C)(C)C)cs3)cc2c1 | > 25 | 4.97 | – | – | –
CC(C)(C)c1csc(NC(=O)COC2CCCCC2)n1 | > 25 | > 25 | – | – | –
CC(C)(C)c1csc(NC(=O)Cc2cn(Cc3ccccc3)c3ccc(Br)cc23)n1 | – | – | 6.13 | > 25 | –
CC(C)(C)c1csc(NC(=O)Cc2cn(C3CCCC3)c3ccc(Cl)cc23)n1 | – | – | 6.52 | > 25 | –
CC(C)(C)c1csc(NC(=O)Cc2cn(CCc3ccccc3)c3ccc(Cl)cc23)n1 | – | – | 4.15 | > 25 | –

SMILES | IC50 [1] [µM] | IC50 [2] [µM] | IC50 [3] [µM] | IC50 [4] [µM] | IC50 [5] [µM]
CC(C)(C)c1csc(NC(=O)c2ncn[nH]2)n1 | > 25 | > 25 | – | – | –
CC(C)(C)c1csc(NC(=O)c2cc3cc(-c4ccc(Cl)cc4)ccc3s2)n1 | > 25 | 14 | – | – | –
COc1cccc(C(=O)Nc2nc(C(C)(C)C)cs2)c1 | > 25 | > 25 | – | – | –
CC(=O)N1CCc2sc(C(=O)Nc3nc(C(C)(C)C)cs3)cc2C1 | – | > 50 | – | – | > 50
CC(C)(C)c1csc(NC(=O)c2cc3ccccc3n2Cc2ccccc2)n1 | – | – | 8.29 | > 25 | –
CC(C)(C)c1csc(NC(=O)c2cccc(C#N)c2)n1 | > 25 | > 25 | – | – | –
Cc1cc(C(=O)Nc2nc(C(C)(C)C)cs2)no1 | > 80 | > 80 | – | – | –
Cc1c(C(=O)Nc2nc(C(C)(C)C)cs2)sc2ccc(Cl)cc12 | > 25 | > 25 | – | – | –
CC(C)(C)c1csc(NC(=O)c2ccc(-c3ccccc3)s2)n1 | – | 1.3 | – | – | 4.5
CC(C)(C)c1csc(NC(=O)Cc2cn(-c3ccc(Cl)cc3)c3ccc(Cl)cc23)n1 | – | – | 2.69 | > 25 | –
CC(C)(C)c1csc(NC(=O)c2cc3cc(-c4cccnc4)ccc3s2)n1 | > 25 | > 25 | – | – | –
CC(C)(C)c1csc(NC(=O)c2cc3ccccc3o2)n1 | > 25 | 23.8 | – | – | –
CC(=O)N(C)[C@@H](Cc1cn(Cc2ccc(F)cc2)c2ccccc12)C(=O)Nc1nc(C(C)(C)C)cs1 | – | – | > 25 | > 25 | –
CC(C)(C)c1csc(NC(=O)CN2CCOCC2)n1 | > 25 | > 25 | – | – | –
CCCc1ccc2sc(C(=O)Nc3nc(C(C)(C)C)cs3)cc2c1 | > 25 | 14.1 | – | – | –
CC(C)(C)c1csc(NC(=O)c2ccc(Br)s2)n1 | – | 23 | – | – | > 80
Cn1c(C(=O)Nc2nc(C(C)(C)C)cs2)cc2ccccc21 | > 25 | 2.21 | – | – | –
CC(C)(C)c1csc(NC(=O)c2cccnn2)n1 | > 25 | > 25 | – | – | –
CC(C)(C)c1csc(NC(=O)c2sc3ccccc3c2Cl)n1 | > 25 | > 25 | – | – | –
CC(C)(C)c1csc(NC(=O)Cc2cn(-c3ccccc3Cl)c3ccc(Cl)cc23)n1 | – | – | 4.4 | > 25 | –
CC(C)(C)OC(=O)N1CCc2sc(C(=O)Nc3nc(C(C)(C)C)cs3)cc2C1 | – | 20 | – | – | > 50
CC(C)(C)c1csc(NC(=O)c2scc3c2CCCC3)n1 | > 25 | > 25 | – | – | –

SMILES | IC50 [1] [µM] | IC50 [2] [µM] | IC50 [3] [µM] | IC50 [4] [µM] | IC50 [5] [µM]
CC(C)(C)c1csc(NC(=O)Cc2cn(Cc3ccccc3)c3ccc(C(N)=O)cc23)n1 | – | – | > 25 | > 25 | –
CC(C)(C)c1csc(NC(=O)Cc2cn(Cc3ccccc3)c3ccc(C#N)cc23)n1 | – | – | 6.06 | > 25 | –
CC(C)(C)c1csc(NC(=O)Cn2ncc3ccccc32)n1 | > 25 | > 25 | – | – | –
CC(C)(C)c1csc(NC(=O)c2cc3cc(C(N)=O)ccc3s2)n1 | > 25 | > 25 | – | – | –
CC(C)(C)c1csc(NC(=O)c2cc3ccc(Cl)cc3s2)n1 | > 25 | > 25 | – | – | –
CC(C)(C)c1csc(NC(=O)c2ccccc2)n1 | > 80 | 10.4 | – | – | –
CC(C)(C)c1csc(NC(=O)c2cccc(N3CCCC3)c2)n1 | > 25 | > 25 | – | – | –
CC(C)(C)c1csc(NC(=O)Cc2cn(Cc3ccccc3C#N)c3ccc(Cl)cc23)n1 | – | – | 3.65 | > 25 | –
CC(C)(C)c1csc(NC(=O)Cc2cccc(S(C)(=O)=O)c2)n1 | > 25 | > 25 | – | – | –
CC(C)(C)Cc1csc(NC(=O)Cc2csc3ccc(Cl)cc23)n1 | > 25 | 2480 | 6.99 | > 25 | –
CC(C)(C)c1csc(NC(=O)c2cc3cc(C4CCCC4)ccc3s2)n1 | > 25 | > 25 | – | – | –
CCc1csc(NC(=O)c2csc(C)c2)n1 | > 25 | > 25 | – | – | –
Cc1cc(C(=O)Nc2nc(C(C)(C)C)cs2)sc1C | > 25 | 9.08 | – | – | –
CC(C)(C)c1csc(NC(=O)Cn2ccc3ccccc32)n1 | > 25 | 8.75 | – | – | –
COC(=O)c1sc(NC(=O)c2cc3c(s2)CCCC3)nc1C(C)(C)C | – | 3.9 | – | – | > 80
CC(C)(C)c1csc(NC(=O)c2cc3cc(C4=CCCC4)ccc3s2)n1 | > 25 | > 25 | – | – | –
CC(C)(C)c1csc(NC(=O)c2ccnnc2)n1 | > 25 | > 25 | – | – | –
O=C(Cc1csc2ccc(Cl)cc12)Nc1nc(Cc2ccccc2)cs1 | > 25 | 19.9 | – | – | –
CC(C)Cn1cc(CC(=O)Nc2nc(C(C)(C)C)cs2)c2cc(Cl)ccc21 | – | – | 5.38 | > 25 | –
CC(c1ccccc1)n1cc(CC(=O)Nc2nc(C(C)(C)C)cs2)c2cc(Cl)ccc21 (stereo not drawn) | > 25 | 0.217 | 2.66 | > 25 | –
